Values joined by “and” are separate entries in the source; they are usually repeats but may differ in a detail not shown here. Equal entries are not always repeated. Where two headings read alike, the source gives them in different places.

For experiment [1], the target named is T1, AHR (Homo sapiens, UniProt P35869).
T1 construct: U87 MG glioblastoma cells (ATCC #HTB-14) endogenously expressing AHR; endogenous in cells; host or cells: U87 MG glioblastoma cells (ATCC #HTB-14)
T1 sequence (P35869 11-848): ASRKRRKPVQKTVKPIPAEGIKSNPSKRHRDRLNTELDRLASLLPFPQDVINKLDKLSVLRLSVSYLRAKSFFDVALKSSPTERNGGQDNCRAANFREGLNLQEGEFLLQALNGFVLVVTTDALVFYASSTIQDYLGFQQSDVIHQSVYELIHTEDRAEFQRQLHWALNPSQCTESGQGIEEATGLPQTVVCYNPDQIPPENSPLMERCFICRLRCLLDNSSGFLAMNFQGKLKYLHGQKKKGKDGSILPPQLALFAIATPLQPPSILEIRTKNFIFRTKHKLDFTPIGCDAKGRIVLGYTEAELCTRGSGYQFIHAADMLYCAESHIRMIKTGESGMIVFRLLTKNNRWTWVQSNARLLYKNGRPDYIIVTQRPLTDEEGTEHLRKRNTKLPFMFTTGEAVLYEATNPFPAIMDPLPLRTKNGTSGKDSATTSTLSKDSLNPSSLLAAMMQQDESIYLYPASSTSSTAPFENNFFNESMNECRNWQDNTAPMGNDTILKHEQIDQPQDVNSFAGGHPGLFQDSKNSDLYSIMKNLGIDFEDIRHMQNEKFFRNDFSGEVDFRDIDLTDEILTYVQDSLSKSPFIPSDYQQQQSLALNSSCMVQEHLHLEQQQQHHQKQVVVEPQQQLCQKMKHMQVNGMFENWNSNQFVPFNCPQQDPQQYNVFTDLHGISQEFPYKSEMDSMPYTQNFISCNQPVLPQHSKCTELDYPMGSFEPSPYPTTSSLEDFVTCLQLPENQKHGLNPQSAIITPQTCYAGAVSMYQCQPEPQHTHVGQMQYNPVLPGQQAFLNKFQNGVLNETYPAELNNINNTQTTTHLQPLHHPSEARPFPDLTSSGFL
Kind of experiment: In vitro assay 1: antagonism in human cell line (AHR transactivation, firefly luciferase reporter, kynurenic acid prestimulated). The format is cell-based. The settings on record: AHR Antagonism Human IC50 [M]. The method in brief:
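U87 MG + DRE-firefly/constitutive-Renilla stable reporters; kynurenic acid prestim; dual-luc read; Renilla = tox; normalized vs pos/neg controls (pos: 150 μM KYNA + 5 μM staurosporine).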
In general terms: A reporter such as luciferase makes a cellular process visible.

Experiment [2] concerns the target T2, AHR (Mus musculus, UniProt P30561).
T2 sequence (P30561 1-848 P471L/N533S/M589L): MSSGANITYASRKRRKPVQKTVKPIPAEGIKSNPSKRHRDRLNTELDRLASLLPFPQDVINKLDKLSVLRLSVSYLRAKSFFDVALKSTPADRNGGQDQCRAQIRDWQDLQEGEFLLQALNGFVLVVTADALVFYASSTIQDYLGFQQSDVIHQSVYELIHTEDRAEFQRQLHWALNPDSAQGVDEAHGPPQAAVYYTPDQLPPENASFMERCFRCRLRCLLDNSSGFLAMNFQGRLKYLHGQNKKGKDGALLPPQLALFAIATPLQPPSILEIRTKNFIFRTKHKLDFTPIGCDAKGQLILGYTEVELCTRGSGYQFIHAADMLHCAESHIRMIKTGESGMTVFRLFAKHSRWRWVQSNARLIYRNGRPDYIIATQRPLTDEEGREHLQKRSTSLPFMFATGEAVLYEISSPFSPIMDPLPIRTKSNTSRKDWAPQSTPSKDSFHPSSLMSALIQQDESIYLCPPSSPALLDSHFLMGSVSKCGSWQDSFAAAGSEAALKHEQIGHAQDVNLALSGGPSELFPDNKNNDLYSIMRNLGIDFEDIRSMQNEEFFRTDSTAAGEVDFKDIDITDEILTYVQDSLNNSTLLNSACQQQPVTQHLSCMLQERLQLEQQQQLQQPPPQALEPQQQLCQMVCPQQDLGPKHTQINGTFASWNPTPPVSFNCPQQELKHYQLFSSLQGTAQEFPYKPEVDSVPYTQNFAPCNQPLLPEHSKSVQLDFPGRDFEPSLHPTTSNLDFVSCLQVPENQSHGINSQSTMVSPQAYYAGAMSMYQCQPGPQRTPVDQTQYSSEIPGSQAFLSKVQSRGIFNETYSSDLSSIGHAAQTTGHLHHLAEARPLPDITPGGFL
The experiment can be described thus: In vitro assay 3: antagonism in mouse cell line (AHR transactivation, firefly luciferase reporter, kynurenic acid prestimulated). In kind it is cell-based. The method in brief:
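Mouse cells stably carrying a DRE-driven AHR-inducible firefly luciferase reporter were prestimulated with the endogenous agonist kynurenic acid before compound addition. Luciferase read by SteadyGlo; cells without kynurenic acid served as full-inhibition control, with normalization to positive and negative controls. Repeat tests reported as mean or median.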

The mark [3] stands for this setting: Hepa 1c1c7 cells, 200 μM kynurenic acid, 20 hours, firefly luciferase reporter, read-out: AHR Antagonism Mouse IC50.
Setting [4] is: mouse Hepa 1c1c7 cells, 200 μM kynurenic acid, 20 hours, read-out: AHR Antagonism Mouse IC50.

In general, IC50 refers to the midpoint of a concentration-inhibition curve. Take `C[C@@H](Nc1nc2c(Br)cccc2c2nc(-c3cnn(C)c3)nn12)C(=O)N1C[C@H]2C[C@@H]1CO2` [Example 898, (2R)-2-{[7-bromo-2-(1-methyl-1H-pyrazol-4-yl)[1,2,4]triazolo[1,5-c]quinazolin-5-yl]amino}-1-[(1R,4R)-2-oxa-5-azabicyclo[2.2.1]heptan-5-yl]propan-1-one]: the IC50 in experiment [1] (firefly luciferase reporter) came out at 1.2e-07 M; in experiment [2] (setting [3]), 25.2 nM.

Turning to `COc1ccc(-c2nc3c4cccc(CSC)c4nc(N[C@@H]4CCCCNC4=O)n3n2)cc1` [Example 863, (3R)-3-({2-(4-methoxyphenyl)-7-[(methylsulfanyl)methyl][1,2,4]triazolo[1,5-c]quinazolin-5-yl}amino)azepan-2-one], the IC50 was 2.98e-09 M in experiment [1] (firefly luciferase reporter) and 12.9 nM in experiment [2] (setting [3]).

As for `CSc1cccc(-c2nc3c4ccccc4nc(N[C@@H]4CCCCNC4=O)n3n2)c1` [Example 449, (3R)-3-({2-[3-(methylsulfanyl)phenyl][1,2,4]triazolo[1,5-c]quinazolin-5-yl}amino)azepan-2-one], the IC50 in experiment [1] was 1.73e-08 M; in experiment [2] (setting [4]) it was 21 nM.

In the case of `CC[C@H](Nc1nc2ccccc2c2nc(-c3cnccn3)nn12)C(N)=O` [Example 688, (2S)-2-{[2-(pyrazin-2-yl)[1,2,4]triazolo[1,5-c]quinazolin-5-yl]amino}butanamide], the IC50 was above 2e-05 M in experiment [1] and above 20000 nM in experiment [2] (setting [4]).

Regarding `CC[C@@H](Nc1nc2ccccc2c2nc(-c3cnccc3C(F)(F)F)nn12)C(N)=O` [Example 491, (2R)-2-({2-[4-(trifluoromethyl)pyridin-3-yl][1,2,4]triazolo[1,5-c]quinazolin-5-yl}amino)butanamide], the IC50 in experiment [1] amounted to 9.72e-08 M; in experiment [2] (setting [4]), 50.5 nM.

Turning to `CC[C@H](Nc1nc2c(Br)cccc2c2nc(-c3ccc(OC)cc3OC(F)(F)F)nn12)C(N)=O` [Example 568, (2S)-2-({7-bromo-2-[4-methoxy-2-(trifluoromethoxy)phenyl][1,2,4]triazolo[1,5-c]quinazolin-5-yl}amino)butanamide], the IC50 in experiment [1] stood at 3.31e-07 M; in experiment [2] (read-out: AHR Antagonism Mouse IC50, mouse Hepa 1c1c7 cells, 200 μM kynurenic acid, 20 hours), 29.9 nM.

`O=C1NCCCC[C@@H]1Nc1nc2ccccc2c2nc(-c3cnccn3)nn12` [Example 695, (3S)-3-{[2-(pyrazin-2-yl)[1,2,4]triazolo[1,5-c]quinazolin-5-yl]amino}azepan-2-one]: the values for the IC50 in experiment [1] and in experiment [2] (setting [4]) were 2.96e-06 M and 2190 nM, respectively.

In the case of `COc1ccc(-c2nc3c4c(C5COC5)cccc4nc(N[C@@H]4CCCCNC4=O)n3n2)cc1` [Example 396, (3R)-3-{[2-(4-methoxyphenyl)-10-(oxetan-3-yl)[1,2,4]triazolo[1,5-c]quinazolin-5-yl]amino}azepan-2-one], the IC50 in experiment [1] turned out to be 1.12e-08 M; in experiment [2] (setting [4]), 21.6 nM.

As for `COc1ccc(-c2nc3c4cccc(C(C)C)c4nc(N[C@@H]4CNCCNC4=O)n3n2)cc1` [Example 429, (6R)-6-{[2-(4-methoxyphenyl)-7-(propan-2-yl)[1,2,4]triazolo[1,5-c]quinazolin-5-yl]amino}-1,4-diazepan-5-one], the IC50 in experiment [1] is 7.8e-09 M; in experiment [2] (setting [4]) it was 70.9 nM.

For the compound `O=C1NCCCC[C@H]1Nc1nc2ccccc2c2nc(-c3ccc(Br)o3)nn12` [Example 537, (3R)-3-{[2-(5-bromofuran-2-yl)[1,2,4]triazolo[1,5-c]quinazolin-5-yl]amino}azepan-2-one], the 50% inhibitory concentration (IC50) in experiment [1] came to 4.31e-09 M; in experiment [2] (setting [4]), 1.9 nM.

Take `CC[C@@H](Nc1nc2ccccc2c2nc(-c3ccc(C#N)cc3)nn12)C(N)=O` [Example 386, (2R)-2-{[2-(4-cyanophenyl)[1,2,4]triazolo[1,5-c]quinazolin-5-yl]amino}butanamide]: the values for the IC50 in experiment [1] and in experiment [2] (setting [4]) were 6.02e-10 M and 0.346 nM, respectively.

`COc1cccc(-c2nc3c4ccccc4nc(NC4CCCNC4=O)n3n2)c1` (stereo not shown) [Example 77, 3-{[2-(3-methoxyphenyl)[1,2,4]triazolo[1,5-c]quinazolin-5-yl]amino}piperidin-2-one]: the IC50 in experiment [1] is 6.52e-08 M; in experiment [2] (setting [4]), 52.1 nM.

As to `CCCNC(=O)[C@H](C)Nc1nc2c(Br)cccc2c2nc(-c3ccc(Cl)cc3OC(F)(F)F)nn12` [Example 811, N^2-{7-bromo-2-[4-chloro-2-(trifluoromethoxy)phenyl][1,2,4]triazolo[1,5-c]quinazolin-5-yl}-N-propyl-L-alaninamide], the IC50 in experiment [1] (firefly luciferase reporter) is > 5.71e-06 M and 4.65e-06 M and > 2e-06 M; in experiment [2] (setting [3]), 43.3 nM.

For `CC[C@H](Nc1nc2c(Br)cccc2c2nc(-c3cnn(C)c3)nn12)C(N)=O` [Example 694, (2S)-2-{[7-bromo-2-(1-methyl-1H-pyrazol-4-yl)[1,2,4]triazolo[1,5-c]quinazolin-5-yl]amino}butanamide], the IC50 in experiment [1] was found to be 1.55e-07 M; in experiment [2] (setting [4]) it was 719 nM.

As to `COc1cccc(-c2nc3c4cc(F)ccc4nc(NC4CCCNC4=O)n3n2)c1` (single isomer, unassigned) [Example 188, 3-{[9-fluoro-2-(3-methoxyphenyl)[1,2,4]triazolo[1,5-c]quinazolin-5-yl]amino}piperidin-2-one], the IC50 in experiment [1] was 3e-08 M; in experiment [2] (setting [4]), 50.4 nM.

Regarding `COc1ccc(-c2nc3c4ccccc4nc(NC4CNCCNC4=O)n3n2)cc1` (single isomer, unassigned) [Example 36, 6-{[2-(4-methoxyphenyl)[1,2,4]triazolo[1,5-c]quinazolin-5-yl]amino}-1,4-diazepan-5-one], the IC50 in experiment [1] was determined as 8.01e-09 M; in experiment [2] (setting [4]), 29.4 nM.

In the case of `O=C1NCCCC[C@H]1Nc1nc2c(C(F)(F)F)cccc2c2nc(-c3cnn(C(F)F)c3)nn12` [Example 736, (3R)-3-({2-[1-(difluoromethyl)-1H-pyrazol-4-yl]-7-(trifluoromethyl)[1,2,4]triazolo[1,5-c]quinazolin-5-yl}amino)azepan-2-one], the IC50 stood at 7.84e-10 M in experiment [1] and 0.669 nM in experiment [2] (setting [4]).

With `Cc1nn(C2CC2)c(C)c1-c1nc2c3cccc(C(F)(F)F)c3nc(N[C@@H]3CCCCNC3=O)n2n1` [Example 745, (3R)-3-{[2-(1-cyclopropyl-3,5-dimethyl-1H-pyrazol-4-yl)-7-(trifluoromethyl)[1,2,4]triazolo[1,5-c]quinazolin-5-yl]amino}azepan-2-one], the values for the IC50 in experiment [1] and in experiment [2] (setting [4]) were 4.41e-09 M and 1.14 nM, respectively.

Consider `COc1ccc(-c2nc3c4cccc(CO)c4nc(N[C@@H]4CCCCNC4=O)n3n2)cc1` [Example 860, (3R)-3-{[7-(hydroxymethyl)-2-(4-methoxyphenyl)[1,2,4]triazolo[1,5-c]quinazolin-5-yl]amino}azepan-2-one], for which the values for the IC50 in experiment [1] (firefly luciferase reporter) and in experiment [2] (setting [3]) were 9.26e-10 M and 16 nM, respectively.

Consider `Cn1cc(-c2nc3c4cccc(Br)c4nc(N[C@H]4CS(=O)(=O)CCNC4=O)n3n2)cn1` [Example 848, (6R)-6-{[7-bromo-2-(1-methyl-1H-pyrazol-4-yl)[1,2,4]triazolo[1,5-c]quinazolin-5-yl]amino}-1λ^6,4-thiazepane-1,1,5-trione], for which the IC50 in experiment [1] (firefly luciferase reporter) worked out at 1.69e-07 M; in experiment [2] (setting [3]) it was 197 nM.

(Values after patent publication US20230113037A1 (Bayer Aktiengesellschaft, priority 2019, published 2023).)
